Earlier results on three compounds are cited in PMC4287394 (Clinical cancer research : an official journal of the …, 2014).

For the data set the following is noted: Phase I; cited from earlier work.

Turning to `C=CCN(/C=C1/C(=O)O[C@H](COC)[C@@]2(C)C1=C(O)C(=O)C1=C2[C@H](OC(C)=O)C[C@]2(C)C(=O)CC[C@@H]12)CC=C` [PX-866], the Hyperglycaemia entry is recorded as “minimal hyperglycaemia” and the Patients with rash entry was “none”.

Turning to `COc1ccc(Cl)c(Nc2nc3ccccc3nc2NS(=O)(=O)c2cccc(NC(=O)C(C)(C)N)c2)c1` [SAR245408], the Hyperglycaemia entry is given as “minimal hyperglycaemia” and the “Patients with rash (all grades)” value is listed as 26%.

In the case of `Nc1cc(C(F)(F)F)c(-c2cc(N3CCOCC3)nc(N3CCOCC3)n2)cn1` [BKM120], the “Observed DLTs” value was “rash, hyperglycemia and mood alterations”.
